Measured values as given in publication PMC5943947 (Molecules : A Journal of Synthetic Chemistry and Natural …, 2017).

Tests used:
HCT116 cell line = test: In vitro antiproliferative activity, MTT assay, HCT116; format: cell-based; settings: Homo sapiens, HCT-116, 48 h
Procedure: (§1) HCT116, MCF-7 and B16 cell lines were plated on 96-well plates at a density of 5000 per well and incubated overnight. […] After 48 h, 0.5% MTT (Amresco, Solon, OH, USA) solution was added to each well, and further incubation for 4 h, then cells were centrifuged at 2500 rpm for 15 min and removed from the culture medium. And add 150 μL DMSO to dissolve the formazan. After mixing for 5 min, optical density was detected at 570 nm on a microplate reader (Thermo, Waltham, MA, USA).

MCF-7 cell line = test: In vitro antiproliferative activity, MTT assay, MCF-7; format: cell-based; settings: Homo sapiens, MCF7, 48 h
Procedure: as §1

B16 cell line = test: In vitro antiproliferative activity, MTT assay, B16; format: cell-based; settings: Mus musculus, 48 h
Procedure: as §1

B16 melanoma xenograft = test: In vivo antitumor activity, B16 melanoma xenograft model; settings: 90 mg/kg for 14 days (text: orally; table footnote: i.p.), C57BL/6J mice
Procedure: (§2) Male C57BL/6J mice were employed to establish the xenograft tumor model by subcutaneous injection (S.C.) of 6 × 10^6 B16 cells. […] In the end of treatment, the mice were sacrificed and the tumor were peeled off and weighted. The inhibition rate of tumor growth was calculated. All animal protocols were conformed to the Guidelines for the Care and Use of Laboratory Animals approved by the Animal Care and Use Committee of Yantai University.

[1] = Body weight in B16 melanoma xenograft model; format: in vivo; settings: B16 tumor-bearing C57BL/6J mice; for Body Weight End: 90 mg/kg for 14 days, end of treatment; for Body Weight Initial: 90 mg/kg, before treatment
Procedure: as §2

EGFR = EGFR (Homo sapiens, UniProt P00533); test: EGFR inhibitory assay (caliper mobility shift assay)
Procedure: (§3) Each of these compounds was dissolved in DMSO at 10 mM, diluted to 50× of the final desired highest inhibitor concentration in reaction by 100% DMSO, and 100 μL of each dilution was added to one well on 96-well storage plate, and diluted by transferring 10 μL to 90 μL of 100% DMSO in the next well. Besides, 100 μL of 100% DMSO was added to two empty wells for no compound control and no enzyme control in the same 96-well plate respectively. The plate was marked as source plate. 10 μL of each compound was transferred from the source plate to a new 96-well plate, which was marked as the intermediate plate. Next, 90 μL of 1× kinase base buffer was added to each well of the intermediate plate, and mixed by shaking vigorously for 10 min. A total of 5 μL of each well from the 96-well intermediate plate was transferred to a 384-well plate in duplicate.
(§4) Kinase reaction: kinase in 1× kinase base buffer, FAM-labeled peptide and ATP in the 1× kinase base buffer were added, then 10 μL of 2.5× enzyme solution was added to each well of the 384-well assay plate. After incubating at room temperature for 10 min, 10 μL of 2.5× peptide solution was added to each well of the 384-well assay plate. […] Finally, the kinase reactions were quenched with 25 μL of EDTA and the plates were washed. The dates were collected and converted with the caliper program.

VEGFR-2 = VEGFR-2 (Homo sapiens, UniProt P35968); test: VEGFR-2 inhibitory assay (caliper mobility shift assay)
VEGFR-2, sequence (P35968 20-1356): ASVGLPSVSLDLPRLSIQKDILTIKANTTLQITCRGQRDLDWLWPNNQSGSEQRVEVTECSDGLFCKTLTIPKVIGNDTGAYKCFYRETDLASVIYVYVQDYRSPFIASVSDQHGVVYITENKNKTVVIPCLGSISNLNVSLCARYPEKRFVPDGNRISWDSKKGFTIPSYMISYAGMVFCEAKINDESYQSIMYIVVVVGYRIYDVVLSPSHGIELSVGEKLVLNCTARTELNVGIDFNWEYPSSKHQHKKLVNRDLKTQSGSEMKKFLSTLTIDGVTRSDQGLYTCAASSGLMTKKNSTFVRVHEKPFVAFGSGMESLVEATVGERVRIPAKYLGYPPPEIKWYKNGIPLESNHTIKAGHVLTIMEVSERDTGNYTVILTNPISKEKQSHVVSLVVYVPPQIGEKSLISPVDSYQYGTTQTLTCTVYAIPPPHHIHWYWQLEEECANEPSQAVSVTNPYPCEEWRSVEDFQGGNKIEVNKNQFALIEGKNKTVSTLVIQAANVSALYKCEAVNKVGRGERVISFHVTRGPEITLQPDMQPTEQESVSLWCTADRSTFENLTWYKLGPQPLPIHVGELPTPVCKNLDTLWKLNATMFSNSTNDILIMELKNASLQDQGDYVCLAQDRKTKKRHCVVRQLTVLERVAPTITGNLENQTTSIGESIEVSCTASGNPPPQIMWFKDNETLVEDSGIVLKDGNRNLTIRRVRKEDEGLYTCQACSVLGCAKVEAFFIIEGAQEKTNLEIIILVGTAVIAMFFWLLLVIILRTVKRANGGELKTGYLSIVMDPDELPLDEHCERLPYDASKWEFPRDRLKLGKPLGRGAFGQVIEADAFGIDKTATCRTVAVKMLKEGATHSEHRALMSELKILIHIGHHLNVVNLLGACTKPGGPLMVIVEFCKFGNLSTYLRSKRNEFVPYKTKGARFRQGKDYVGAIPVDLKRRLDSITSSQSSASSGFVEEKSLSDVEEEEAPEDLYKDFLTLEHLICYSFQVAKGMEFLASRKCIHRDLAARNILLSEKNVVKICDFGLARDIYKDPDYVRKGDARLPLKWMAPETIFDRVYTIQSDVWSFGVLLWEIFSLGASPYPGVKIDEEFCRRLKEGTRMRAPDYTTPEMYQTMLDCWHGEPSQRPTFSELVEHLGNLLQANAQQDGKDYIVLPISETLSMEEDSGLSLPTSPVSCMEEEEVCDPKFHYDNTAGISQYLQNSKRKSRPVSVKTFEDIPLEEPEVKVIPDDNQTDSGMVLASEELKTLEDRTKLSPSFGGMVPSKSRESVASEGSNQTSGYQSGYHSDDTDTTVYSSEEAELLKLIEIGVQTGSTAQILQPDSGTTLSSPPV
Procedure: as §3, §4

EGFR, sequence (P00533 25-1210): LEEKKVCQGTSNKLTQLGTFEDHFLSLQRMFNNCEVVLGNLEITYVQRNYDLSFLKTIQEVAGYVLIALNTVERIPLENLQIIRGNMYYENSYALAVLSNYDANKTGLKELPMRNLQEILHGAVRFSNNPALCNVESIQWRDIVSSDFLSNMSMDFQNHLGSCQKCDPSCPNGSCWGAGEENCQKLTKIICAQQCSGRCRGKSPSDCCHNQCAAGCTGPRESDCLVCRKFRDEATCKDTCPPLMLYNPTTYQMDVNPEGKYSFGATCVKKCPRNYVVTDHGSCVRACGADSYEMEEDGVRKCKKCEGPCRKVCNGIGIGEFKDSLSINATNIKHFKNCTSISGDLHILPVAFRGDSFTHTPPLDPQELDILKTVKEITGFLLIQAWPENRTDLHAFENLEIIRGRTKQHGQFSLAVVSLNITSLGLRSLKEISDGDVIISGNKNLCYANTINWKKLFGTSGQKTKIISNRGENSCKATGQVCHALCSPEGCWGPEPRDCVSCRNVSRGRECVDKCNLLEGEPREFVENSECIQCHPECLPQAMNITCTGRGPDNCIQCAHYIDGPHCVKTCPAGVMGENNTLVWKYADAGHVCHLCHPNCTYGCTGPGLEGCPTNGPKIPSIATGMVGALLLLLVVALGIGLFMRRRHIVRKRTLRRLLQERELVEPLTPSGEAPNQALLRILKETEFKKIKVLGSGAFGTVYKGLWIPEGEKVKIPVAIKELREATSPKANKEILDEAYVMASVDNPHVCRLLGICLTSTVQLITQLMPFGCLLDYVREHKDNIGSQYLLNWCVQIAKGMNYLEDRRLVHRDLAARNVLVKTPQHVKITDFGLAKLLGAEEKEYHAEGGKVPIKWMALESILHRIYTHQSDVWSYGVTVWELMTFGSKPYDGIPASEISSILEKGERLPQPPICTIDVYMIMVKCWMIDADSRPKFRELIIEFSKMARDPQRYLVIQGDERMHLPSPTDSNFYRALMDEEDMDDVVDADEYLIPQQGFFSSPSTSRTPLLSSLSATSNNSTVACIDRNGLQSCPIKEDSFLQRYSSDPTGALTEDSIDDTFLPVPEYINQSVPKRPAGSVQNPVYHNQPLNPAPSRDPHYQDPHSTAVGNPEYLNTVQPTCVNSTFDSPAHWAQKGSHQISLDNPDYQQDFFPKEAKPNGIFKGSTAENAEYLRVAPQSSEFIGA

`COc1cc2ncnc(Oc3cccc(NC(=S)Nc4ccc(Cl)c(C(F)(F)F)c4)c3)c2cc1OC` [Compound 10b, 1-(4-Chloro-3-trifluoromethylphenyl)-3-[3-(6,7-dimethoxyquinazolin-4-yloxy)phenyl]thiourea] gave an IC50 (HCT116 cell line) of 9.13 µM, an IC50 (MCF-7 cell line) of 17.7 µM and an IC50 (B16 cell line) of 6.11 µM. The “Inhibition Rate of tumor growth” value (B16 melanoma xenograft) was 49.22%, the “Tumor Weight” value (B16 melanoma xenograft) was 0.65 ± 0.22 g and the “Body Weight End” value [1] was 19.5 ± 3.0 g. The “Body Weight Initial” value [1] was 18.9 ± 1.8 g, the IC50 (EGFR) was 0.02 µM and the IC50 (VEGFR-2) was 0.05 µM.

`COc1cc2ncnc(Sc3cccc(NC(=S)Nc4ccc(Br)c(C(F)(F)F)c4)c3)c2cc1OC` [Compound 10q, 1-(4-Bromo-3-trifluoromethylphenyl)-3-[3-(6,7-dimethoxyquinazolin-4-ylsulfanyl)phenyl] thiourea] gave an IC50 (HCT116 cell line) of 8.35 µM, an IC50 (MCF-7 cell line) of 15.7 µM and an IC50 (B16 cell line) of 5.57 µM. The “Inhibition Rate of tumor growth” value (B16 melanoma xenograft) was 64.06%, the “Tumor Weight” value (B16 melanoma xenograft) was 0.46 ± 0.14 g and the “Body Weight End” value [1] was 20.2 ± 2.7 g. For the same compound, the “Body Weight Initial” value [1] was 19.1 ± 2.7 g, the melting point was 150.3 to 152 °C and the IC50 (EGFR) was 0.01 µM. It also gave an IC50 (VEGFR-2) of 0.08 µM.

`CNC(=O)c1cc(Oc2ccc(NC(=O)Nc3ccc(Cl)c(C(F)(F)F)c3)cc2)ccn1` [sorafenib, reference compound] gave an IC50 (HCT116 cell line) of 10.6 µM, an IC50 (MCF-7 cell line) of 17.9 µM and an IC50 (B16 cell line) of 9.29 µM. The “Inhibition Rate of tumor growth” value (B16 melanoma xenograft) was 31.25%, the “Tumor Weight” value (B16 melanoma xenograft) was 0.88 ± 0.46 g and the “Inhibition Rate of tumor growth” value (B16 melanoma xenograft; listed as Sorafenib) was 31.25%. The “Body Weight End” value [1] was 21.3 ± 2.4 g and the “Body Weight Initial” value [1] was 20.7 ± 2.1 g.

For `COc1cc2ncnc(Sc3cccc(NC(=S)Nc4ccc(Cl)c(C(F)(F)F)c4)c3)c2cc1OC` [Compound 10m, 1-(4-Chloro-3-trifluoromethylphenyl)-3-[3-(6,7-dimethoxyquinazolin-4-ylsulfanyl)phenyl] thiourea], the IC50 (HCT116 cell line) was 8.11 µM, the IC50 (MCF-7 cell line) was 20.9 µM and the IC50 (B16 cell line) was 7.89 µM. For the same compound, the “Inhibition Rate of tumor growth” value (B16 melanoma xenograft) was 20.31%, the “Tumor Weight” value (B16 melanoma xenograft) was 1.02 ± 0.36 g and the “Body Weight End” value [1] was 20.9 ± 1.6 g. The “Body Weight Initial” value [1] was 19.2 ± 2.1 g, the melting point was 162.2 to 164 °C and the IC50 (EGFR) was 0.01 µM. It also gave an IC50 (VEGFR-2) of 0.07 µM.
